Test results published in ChEMBL document CHEMBL5620419, “Discovery of new Lenalidomide derivatives as potent and selective GSPT1 degraders” (Eur J Med Chem, 2023).

Target: Protein cereblon/Eukaryotic peptide chain release factor GTP-binding subunit ERF3A (Homo sapiens, UniProt P15170+Q96SW2)
Assay: PROTAC activity at CRBN/GSPT1 in human U-937 cells assessed as degradation of GSPT1 measured after 6 hrs by Western blot analysis
Type: cell-based

Chain of Protein cereblon/Eukaryotic peptide chain release factor GTP-binding subunit ERF3A (Q96SW2 whole entry): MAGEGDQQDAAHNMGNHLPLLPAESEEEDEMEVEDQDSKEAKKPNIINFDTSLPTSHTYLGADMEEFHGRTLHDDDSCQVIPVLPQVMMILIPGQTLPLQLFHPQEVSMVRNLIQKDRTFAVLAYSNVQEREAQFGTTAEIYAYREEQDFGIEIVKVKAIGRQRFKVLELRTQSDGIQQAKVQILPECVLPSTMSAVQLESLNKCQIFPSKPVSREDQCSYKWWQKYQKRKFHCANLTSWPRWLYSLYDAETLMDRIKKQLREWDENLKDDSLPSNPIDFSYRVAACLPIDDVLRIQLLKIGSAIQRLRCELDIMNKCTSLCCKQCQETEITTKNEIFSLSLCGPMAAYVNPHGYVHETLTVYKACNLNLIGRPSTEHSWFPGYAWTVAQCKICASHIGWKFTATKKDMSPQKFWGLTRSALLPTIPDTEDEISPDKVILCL
Chain of Protein cereblon/Eukaryotic peptide chain release factor GTP-binding subunit ERF3A (P15170 whole entry): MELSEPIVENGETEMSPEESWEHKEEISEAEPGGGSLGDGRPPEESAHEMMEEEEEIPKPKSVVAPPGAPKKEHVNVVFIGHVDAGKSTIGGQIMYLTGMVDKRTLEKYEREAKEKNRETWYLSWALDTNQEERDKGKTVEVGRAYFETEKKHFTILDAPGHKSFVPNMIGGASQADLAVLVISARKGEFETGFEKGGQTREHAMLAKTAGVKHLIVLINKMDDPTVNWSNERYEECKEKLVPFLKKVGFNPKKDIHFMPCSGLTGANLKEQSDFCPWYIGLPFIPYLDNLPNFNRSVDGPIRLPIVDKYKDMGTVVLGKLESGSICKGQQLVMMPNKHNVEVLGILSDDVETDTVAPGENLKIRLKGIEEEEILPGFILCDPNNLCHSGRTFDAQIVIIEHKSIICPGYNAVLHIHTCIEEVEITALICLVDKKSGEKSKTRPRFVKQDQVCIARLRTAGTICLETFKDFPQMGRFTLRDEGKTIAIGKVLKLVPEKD

EC50 [nM] | Compound
> 10000 | Cc1ccc(NC(=O)COc2ccc3c(c2)C(=O)N(C2CCC(=O)NC2=O)C3)cc1Cl (centres undefined)
251 | Cc1c(Cl)cc(NC(=O)CCc2ccc3c(c2)C(=O)N(C2CCC(=O)NC2=O)C3)cc1CN1CCN(C2CCOCC2)CC1 (centres undefined)
> 10000 | Cc1ccc(NC(=O)CC(C)c2ccc3c(c2)C(=O)N(C2CCC(=O)NC2=O)C3)cc1Cl (centres undefined)
220 | Cc1c(Cl)cc(NC(=O)CCc2ccc3c(c2)C(=O)N(C2CCC(=O)NC2=O)C3)cc1CN1CCN(C2COC2)CC1 (centres undefined)
